Measurements reported in ChEMBL document CHEMBL1138985, “Discovery of potent, selective, and orally bioavailable pyridone-based dipeptidyl peptidase-4 inhibitors” (Bioorg Med Chem Lett, 2006).
pIC50: −log10 of the molar value.

Legend:
Dipeptidyl peptidase 8 = Dipeptidyl peptidase 8 (Homo sapiens, UniProt Q6V1X1)
Dipeptidyl peptidase 9 = Dipeptidyl peptidase 9 (Homo sapiens, UniProt Q86TI2)
[1] = Half life in rat at 1 mg/kg, iv or 2 mg/kg, po; assay type: ADME, organism-based; conditions: in vivo
Dipeptidyl peptidase 2 = Dipeptidyl peptidase 2 (Homo sapiens, UniProt Q9UHL4); test: Inhibition of QPP
[2] = Plasma clearance in rat at 1 mg/kg, iv or 2 mg/kg, po; assay type: ADME, organism-based
[3] = Bioavailability in rat at 1 mg/kg, iv or 2 mg/kg, po; assay type: ADME, organism-based; conditions: in vivo
[4] = Plasma clearance in dog at 1 mg/kg, iv or 2 mg/kg, po; assay type: ADME, organism-based, Canis lupus familiaris
[5] = Half life in rhesus monkey at 1 mg/kg, iv or 2 mg/kg, po; assay type: ADME, organism-based, Macaca mulatta; conditions: in vivo
[6] = Plasma clearance in rhesus monkey at 1 mg/kg, iv or 2 mg/kg, po; assay type: ADME, organism-based, Macaca mulatta
[7] = Half life in dog at 1 mg/kg, iv or 2 mg/kg, po; assay type: ADME, organism-based, Canis lupus familiaris; conditions: in vivo
[8] = Bioavailability in dog at 1 mg/kg, iv or 2 mg/kg, po; assay type: ADME, organism-based, Canis lupus familiaris; conditions: in vivo
Mus musculus [9] = test: Reduction of glucose excursion at 10 mg/kg, po in mouse by Oral Glucose Tolerance Test; assay type: functional; parameters: scale not given: the % may be the effect or the level left
[10] = Bioavailability in rhesus monkey at 1 mg/kg, iv or 2 mg/kg, po; assay type: ADME, organism-based, Macaca mulatta; conditions: in vivo
Mus musculus [11] = test: Reduction of glucose excursion at 1 mg/kg, po in mouse by Oral Glucose Tolerance Test; assay type: functional; parameters: scale not given: the % may be the effect or the level left
[12] = target: Voltage-gated inwardly rectifying potassium channel KCNH2 (Homo sapiens, UniProt Q12809); test: Binding to human ERG potassium channel
Chain of Voltage-gated inwardly rectifying potassium channel KCNH2 (Q12809 whole entry): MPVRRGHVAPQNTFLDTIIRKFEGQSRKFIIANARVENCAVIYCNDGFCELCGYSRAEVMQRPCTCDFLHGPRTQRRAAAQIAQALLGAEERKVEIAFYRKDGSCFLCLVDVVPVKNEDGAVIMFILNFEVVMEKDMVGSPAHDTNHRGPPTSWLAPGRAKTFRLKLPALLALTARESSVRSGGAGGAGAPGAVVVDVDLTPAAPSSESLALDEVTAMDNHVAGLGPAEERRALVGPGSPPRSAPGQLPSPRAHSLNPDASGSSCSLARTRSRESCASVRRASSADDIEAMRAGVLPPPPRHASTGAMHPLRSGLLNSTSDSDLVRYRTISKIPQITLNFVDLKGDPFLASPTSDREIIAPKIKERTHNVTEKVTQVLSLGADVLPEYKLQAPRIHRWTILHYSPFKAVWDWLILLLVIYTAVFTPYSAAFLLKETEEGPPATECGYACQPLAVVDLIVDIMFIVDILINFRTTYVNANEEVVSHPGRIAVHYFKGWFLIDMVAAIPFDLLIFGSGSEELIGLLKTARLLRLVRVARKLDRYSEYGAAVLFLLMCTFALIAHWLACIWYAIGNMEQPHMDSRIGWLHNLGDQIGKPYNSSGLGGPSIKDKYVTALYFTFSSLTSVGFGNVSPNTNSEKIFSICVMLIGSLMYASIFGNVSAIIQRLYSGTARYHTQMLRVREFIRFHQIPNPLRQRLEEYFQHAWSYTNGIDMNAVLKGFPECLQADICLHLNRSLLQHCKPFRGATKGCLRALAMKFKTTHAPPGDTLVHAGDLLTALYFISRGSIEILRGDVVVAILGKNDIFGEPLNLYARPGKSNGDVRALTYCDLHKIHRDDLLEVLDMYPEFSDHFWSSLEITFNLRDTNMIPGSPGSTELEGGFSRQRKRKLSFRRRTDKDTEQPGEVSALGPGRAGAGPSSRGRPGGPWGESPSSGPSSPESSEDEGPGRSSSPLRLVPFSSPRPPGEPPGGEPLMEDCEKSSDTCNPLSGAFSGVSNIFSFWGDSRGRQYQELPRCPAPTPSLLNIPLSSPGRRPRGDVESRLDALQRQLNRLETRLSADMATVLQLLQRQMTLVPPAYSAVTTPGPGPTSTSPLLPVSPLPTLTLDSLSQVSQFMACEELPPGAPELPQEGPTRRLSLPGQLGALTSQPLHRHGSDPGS

Chain of Dipeptidyl peptidase 9 (Q86TI2 whole entry): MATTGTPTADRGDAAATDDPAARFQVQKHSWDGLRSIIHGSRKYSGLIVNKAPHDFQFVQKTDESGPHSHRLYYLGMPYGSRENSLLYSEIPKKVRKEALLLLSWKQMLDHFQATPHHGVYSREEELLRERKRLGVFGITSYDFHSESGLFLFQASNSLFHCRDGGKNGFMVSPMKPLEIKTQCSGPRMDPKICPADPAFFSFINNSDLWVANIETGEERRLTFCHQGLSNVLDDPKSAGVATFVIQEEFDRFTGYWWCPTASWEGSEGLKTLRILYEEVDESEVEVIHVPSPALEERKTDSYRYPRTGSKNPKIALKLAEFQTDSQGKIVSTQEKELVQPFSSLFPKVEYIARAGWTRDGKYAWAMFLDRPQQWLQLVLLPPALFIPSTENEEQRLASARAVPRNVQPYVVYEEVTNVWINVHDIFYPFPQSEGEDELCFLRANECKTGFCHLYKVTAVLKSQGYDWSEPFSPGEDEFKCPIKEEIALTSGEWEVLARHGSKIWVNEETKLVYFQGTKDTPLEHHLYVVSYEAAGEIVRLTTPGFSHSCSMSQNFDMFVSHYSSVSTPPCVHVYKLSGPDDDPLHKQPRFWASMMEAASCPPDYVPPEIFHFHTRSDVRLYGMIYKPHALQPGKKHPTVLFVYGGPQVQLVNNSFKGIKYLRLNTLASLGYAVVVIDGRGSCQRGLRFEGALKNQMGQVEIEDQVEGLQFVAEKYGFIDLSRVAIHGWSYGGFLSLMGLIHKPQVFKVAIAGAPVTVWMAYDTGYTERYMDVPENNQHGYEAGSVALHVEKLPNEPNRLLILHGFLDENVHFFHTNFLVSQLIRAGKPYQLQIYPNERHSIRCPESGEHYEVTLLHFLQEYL
Chain of Dipeptidyl peptidase 8 (Q6V1X1 whole entry): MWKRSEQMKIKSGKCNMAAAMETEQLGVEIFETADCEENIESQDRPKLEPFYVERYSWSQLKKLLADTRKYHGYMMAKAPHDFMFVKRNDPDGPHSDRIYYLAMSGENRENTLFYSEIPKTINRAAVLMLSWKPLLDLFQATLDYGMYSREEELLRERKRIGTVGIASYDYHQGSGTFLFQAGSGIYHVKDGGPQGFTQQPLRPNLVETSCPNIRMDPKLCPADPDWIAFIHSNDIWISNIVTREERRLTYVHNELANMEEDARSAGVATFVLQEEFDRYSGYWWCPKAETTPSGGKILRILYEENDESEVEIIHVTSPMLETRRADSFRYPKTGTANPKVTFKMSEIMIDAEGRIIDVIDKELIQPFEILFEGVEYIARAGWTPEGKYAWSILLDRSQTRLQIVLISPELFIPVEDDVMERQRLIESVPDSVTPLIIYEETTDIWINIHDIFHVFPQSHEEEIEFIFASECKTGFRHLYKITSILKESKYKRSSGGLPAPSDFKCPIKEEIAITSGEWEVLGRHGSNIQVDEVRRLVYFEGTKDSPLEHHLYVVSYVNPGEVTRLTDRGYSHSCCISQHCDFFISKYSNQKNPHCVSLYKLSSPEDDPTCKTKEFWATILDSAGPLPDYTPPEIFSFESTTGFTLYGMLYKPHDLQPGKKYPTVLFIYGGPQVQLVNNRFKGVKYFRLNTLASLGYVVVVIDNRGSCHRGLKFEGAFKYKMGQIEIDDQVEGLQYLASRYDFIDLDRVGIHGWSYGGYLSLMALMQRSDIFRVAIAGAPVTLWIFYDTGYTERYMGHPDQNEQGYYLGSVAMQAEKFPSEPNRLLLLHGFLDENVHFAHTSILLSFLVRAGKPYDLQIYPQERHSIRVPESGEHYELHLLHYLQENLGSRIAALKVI

| SMILES | pIC50 (Dipeptidyl peptidase 8) | pIC50 (Dipeptidyl peptidase 9) | further results |
| --- | --- | --- | --- |
| C[C@@H](c1ccc(-c2cc(F)c(=O)n(C)c2)cc1)[C@H](N)C(=O)N1CC[C@H](F)C1 |  | < 4.00 |  |
| C[C@@H](c1ccc(-c2ccc(=O)n(C)c2)cc1)[C@H](N)C(=O)N1CCC(F)(F)C1 | < 4.00 | < 4.00 |  |
| CCn1cc(-c2ccc([C@H](C)[C@H](N)C(=O)N3CC[C@H](F)C3)cc2)ccc1=O | < 4.00 | < 4.00 |  |
| C[C@@H](c1ccc(-c2ccc(=O)n(C)c2)cc1)[C@H](N)C(=O)N1CCSC1 | < 4.00 | < 4.00 |  |
| C[C@@H](c1ccc(-c2ccc(=O)n(C)c2)cc1)[C@H](N)C(=O)N1CC(F)C1 | < 4.00 | < 4.00 |  |
| COc1cc(=O)n(C)cc1-c1ccc([C@H](C)[C@H](N)C(=O)N2CC[C@H](F)C2)cc1 | < 4.00 | < 4.00 |  |
| C[C@@H](c1ccc(-c2ccc(O)nc2)cc1)[C@H](N)C(=O)N1CC[C@H](F)C1.O=C(O)C(F)(F)F | < 4.00 | < 4.00 | pIC50 [12]: 5.08; half-life [1]: 1.9 h; clearance [2]: 35.8 mL/min/kg; bioavailability [3]: 10% |
| CCOC(=O)Cn1cc(-c2ccc([C@H](C)[C@H](N)C(=O)N3CC[C@H](F)C3)cc2)ccc1=O | < 4.00 | < 4.00 |  |
| C[C@@H](c1ccc(-c2ccc(=O)n(CC3CC3)c2)cc1)[C@H](N)C(=O)N1CC[C@H](F)C1 | < 4.00 | < 4.00 |  |
| C[C@@H](c1ccc(-c2cc(Br)c(=O)n(C)c2)cc1)[C@H](N)C(=O)N1CC[C@H](F)C1 | < 4.00 | < 4.00 |  |
| C[C@@H](c1ccc(-c2cn(C)c(=O)cc2F)cc1)[C@H](N)C(=O)N1CC[C@H](F)C1 | < 4.00 | < 4.00 |  |
| Cc1cc(=O)n(C)cc1-c1ccc([C@H](C)[C@H](N)C(=O)N2CC[C@H](F)C2)cc1 | < 4.00 | < 4.00 |  |
| CCOC(=O)C(F)(F)n1cc(-c2ccc([C@H](C)[C@H](N)C(=O)N3CC[C@H](F)C3)cc2)ccc1=O | < 4.00 | < 4.00 |  |
| CCOC(=O)Nc1c(-c2ccc([C@H](C)[C@H](N)C(=O)N3CC[C@H](F)C3)cc2)cn(C)c(=O)c1F | < 4.00 |  |  |

Second part, led by results:

| pIC50 (Dipeptidyl peptidase 8) | pIC50 (Dipeptidyl peptidase 9) | SMILES | further results |
| --- | --- | --- | --- |
| < 4.00 | < 4.00 | C[C@@H](c1ccc(-c2ccc(=O)n(C)c2)cc1)[C@H](N)C(=O)N1CCC(F)CC1 |  |
| < 4.00 | < 4.00 | C[C@@H](c1ccc(-c2cn(C)c(=O)cc2CO)cc1)[C@H](N)C(=O)N1CC[C@H](F)C1.O=C(O)C(F)(F)F | half-life [1]: 2.6 h; pIC50 (Dipeptidyl peptidase 2): < 4.00; clearance [2]: 68.1 mL/min/kg; bioavailability [3]: 3% |
| < 4.00 | < 4.00 | C[C@@H](c1ccc(-c2cn(C)c(=O)c(Cl)c2F)cc1)[C@H](N)C(=O)N1CC[C@H](F)C1 |  |
| < 4.00 | < 4.00 | Cc1c(-c2ccc([C@H](C)[C@H](N)C(=O)N3CC[C@H](F)C3)cc2)cc(Br)c(=O)n1C |  |
| < 4.00 | < 4.00 | C[C@@H](c1ccc(-c2ccc(=O)n(C)c2)cc1)[C@H](N)C(=O)N1CCCC1 |  |
| < 4.00 | < 4.00 | C[C@@H](c1ccc(-c2ccc(=O)n(C)c2F)cc1)[C@H](N)C(=O)N1CC[C@H](F)C1.O=C(O)C(F)(F)F | half-life [1]: 1.1 h; clearance [2]: 11.2 mL/min/kg; bioavailability [3]: 61% |
| < 4.00 | < 4.00 | C[C@@H](c1ccc(-c2ccc(=O)n(-c3ccc(F)cc3)c2)cc1)[C@H](N)C(=O)N1CC[C@H](F)C1 |  |
| < 4.00 | < 4.00 | Cc1c(-c2ccc([C@H](C)[C@H](N)C(=O)N3CC[C@H](F)C3)cc2)ccc(=O)n1C |  |
| < 4.00 | < 4.00 | C[C@@H](c1ccc(-c2ccc(=O)n(C)c2)cc1)[C@H](N)C(=O)N1CC[C@H](F)C1.O=C(O)C(F)(F)F | clearance [4]: 4.7 mL/min/kg; half-life [5]: 3.9 h; clearance [6]: 6.7 mL/min/kg; half-life [7]: 3.8 h; bioavailability [8]: 95%; half-life [1]: 1.4 h; Activity (Mus musculus [9]): 56%; bioavailability [10]: 50%; clearance [2]: 7.7 mL/min/kg; bioavailability [3]: 34%; Activity (Mus musculus [11]): 33% |
